ChEMBL document CHEMBL1201862, “PubChem BioAssay data set” (2004)
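Growth conditions: 96-well plates. Treatment: test compound, 48 hours, 5 concentrations. Analysis: linear interpolation between bracketing concentrations; unreached endpoints set to highest concentration. Abbreviation: GI50, concentration required for 50% inhibition of growth.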 Active and inactive are the calls of the source. Rule as the data show it: active = GI50 up to about 1.1 µM and inactive = higher.

Columns and labels:
Assay in all cases: DTP human tumour cell line panel, 48 h
SNB-19 = test system: SNB-19
OVCAR-3 = test system: OVCAR-3
IGROV-1 = test system: IGROV-1
SK-MEL-5 = test system: SK-MEL-5
SK-MEL-28 = test system: SK-MEL-28
NCI-H23 = test system: NCI-H23
SW-620 = test system: SW-620
M14 = test system: M14
UACC-257 = test system: UACC-257
HCC 2998 = test system: HCC 2998
Malme-3M = test system: Malme-3M
RXF 393 = test system: RXF 393
COLO 205 = test system: COLO 205
HT-29 = test system: HT-29
OVCAR-4 = test system: OVCAR-4
LOX IMVI = test system: LOX IMVI
KM12 = test system: KM12
TK-10 = test system: TK-10
SF-539 = test system: SF-539
RPMI-8226 = test system: RPMI-8226

Row | SMILES | GI50 (SNB-19) | GI50 (OVCAR-3) | GI50 (IGROV-1) | GI50 (SK-MEL-5) | GI50 (SK-MEL-28) | GI50 (NCI-H23) | GI50 (SW-620) | GI50 (M14) | GI50 (UACC-257) | GI50 (HCC 2998) | GI50 (Malme-3M) | GI50 (RXF 393) | GI50 (COLO 205) | GI50 (HT-29) | GI50 (OVCAR-4) | GI50 (LOX IMVI) | GI50 (KM12) | GI50 (TK-10) | GI50 (SF-539) | GI50 (RPMI-8226)
1 | NC(S)=Nc1cc(Cl)ccc1Cl | > 100 µM (inactive) | > 100 µM (inactive) | > 100 µM (inactive) | > 100 µM (inactive) | > 100 µM (inactive) | > 100 µM (inactive) | > 100 µM (inactive) | > 100 µM (inactive) | > 100 µM (inactive) | > 100 µM (inactive) | > 100 µM (inactive) | 94 µM (inactive) | > 100 µM (inactive) | > 100 µM (inactive) | > 100 µM (inactive) | > 100 µM (inactive) | > 100 µM (inactive) | > 100 µM (inactive) | > 100 µM (inactive) | > 100 µM (inactive)
2 | CC1CN=C(Nc2cccc(C(F)(F)F)c2)S1 (configuration not stated) | 95.5 µM (inactive) | 51.5 µM (inactive) | – | – | > 100 µM (inactive) | 36.1 µM (inactive) | – | > 100 µM (inactive) | 52.5 µM (inactive) | > 100 µM (inactive) | > 100 µM (inactive) | 42.9 µM (inactive) | – | 78.7 µM (inactive) | – | 43.5 µM (inactive) | 81.5 µM (inactive) | 84.5 µM (inactive) | > 100 µM (inactive) | 23.4 µM (inactive)
3 | COc1ccc(OC)c(C(=O)/C=C/c2cc(O)c(O)cc2F)c1 | 0.619 µM (active) | 0.18 µM (active) | 1.61 µM (inactive) | 0.558 µM (active) | 1.85 µM (inactive) | 0.535 µM (active) | 0.845 µM (active) | 0.638 µM (active) | 3.1 µM (inactive) | 0.538 µM (active) | 2.47 µM (inactive) | 1.37 µM (inactive) | 15.5 µM (inactive) | 7.14 µM (inactive) | 2.29 µM (inactive) | 0.69 µM (active) | 0.474 µM (active) | 6.58 µM (inactive) | 0.258 µM (active) | 0.678 µM (active)
4 | CC(=O)/C=C/c1c[nH]c(=O)[nH]c1=O | 295 µM (inactive) | 180 µM (inactive) | 151 µM (inactive) | 271 µM (inactive) | 190 µM (inactive) | 257 µM (inactive) | 223 µM (inactive) | – | 265 µM (inactive) | 236 µM (inactive) | 243 µM (inactive) | 126 µM (inactive) | 154 µM (inactive) | 420 µM (inactive) | 508 µM (inactive) | 97.5 µM (inactive) | 187 µM (inactive) | – | 214 µM (inactive) | 129 µM (inactive)
5 | Nc1nc(=O)n(CC(O)CO)s1 (configuration not stated) | > 100 µM (inactive) | > 100 µM (inactive) | > 100 µM (inactive) | > 100 µM (inactive) | < 0.01 µM (active) | > 100 µM (inactive) | > 100 µM (inactive) | > 100 µM (inactive) | > 100 µM (inactive) | > 100 µM (inactive) | > 100 µM (inactive) | > 100 µM (inactive) | > 100 µM (inactive) | > 100 µM (inactive) | > 100 µM (inactive) | > 100 µM (inactive) | – | > 100 µM (inactive) | > 100 µM (inactive) | > 100 µM (inactive)
6 | CC(C)(C)[Si](OC1CC(n2cnc3c(N)ncnc32)OC1CO)(c1ccccc1)c1ccccc1 (configuration not stated) | 20.2 µM (inactive) | 16.6 µM (inactive) | 20.8 µM (inactive) | – | 21.5 µM (inactive) | 13.9 µM (inactive) | 19 µM (inactive) | 34.6 µM (inactive) | 66.5 µM (inactive) | 67.5 µM (inactive) | 19 µM (inactive) | 13.4 µM (inactive) | 30.3 µM (inactive) | 16.1 µM (inactive) | 15 µM (inactive) | 17.7 µM (inactive) | 19.8 µM (inactive) | 24.2 µM (inactive) | 20.2 µM (inactive) | 14.1 µM (inactive)
7 | COc1ccc(-c2cc(-c3ccccc3)c(C#N)c(=O)n2C2OC(CO)C(O)C(O)C2O)cc1 (configuration not stated) | > 100 µM (inactive) | > 100 µM (inactive) | > 100 µM (inactive) | > 100 µM (inactive) | > 100 µM (inactive) | > 100 µM (inactive) | > 100 µM (inactive) | > 100 µM (inactive) | > 100 µM (inactive) | > 100 µM (inactive) | > 100 µM (inactive) | > 100 µM (inactive) | > 100 µM (inactive) | > 100 µM (inactive) | > 100 µM (inactive) | > 100 µM (inactive) | > 100 µM (inactive) | > 100 µM (inactive) | > 100 µM (inactive) | > 100 µM (inactive)
8 | NC(=O)NN=C(CS)CS | 23.1 µM (inactive) | 23.3 µM (inactive) | 39.1 µM (inactive) | 17 µM (inactive) | 30.6 µM (inactive) | 22.7 µM (inactive) | 28.4 µM (inactive) | – | 19.5 µM (inactive) | 31 µM (inactive) | 19.7 µM (inactive) | 40.2 µM (inactive) | 23.1 µM (inactive) | 20.7 µM (inactive) | 25.4 µM (inactive) | 15.7 µM (inactive) | 33.2 µM (inactive) | – | 21.8 µM (inactive) | 46.1 µM (inactive)
9 | Cc1[nH]c(=O)nc(S)c1C(=O)NC1C2CCCCC2NC2CCCCC21 (configuration not stated) | 15.6 µM (inactive) | 16 µM (inactive) | 15.7 µM (inactive) | 18.9 µM (inactive) | 11.2 µM (inactive) | 14.4 µM (inactive) | 18.1 µM (inactive) | 14.2 µM (inactive) | 16.3 µM (inactive) | 25 µM (inactive) | 24.1 µM (inactive) | 13.5 µM (inactive) | 20.5 µM (inactive) | 21.4 µM (inactive) | 18.3 µM (inactive) | 27 µM (inactive) | 16.1 µM (inactive) | 16.5 µM (inactive) | – | 26.4 µM (inactive)
10 | CCOC(=O)[C@H]1Nc2c(cccc2[N+](=O)[O-])[C@H]2OCC[C@@H]12 | > 100 µM (inactive) | > 100 µM (inactive) | > 100 µM (inactive) | > 100 µM (inactive) | > 100 µM (inactive) | > 100 µM (inactive) | > 100 µM (inactive) | > 100 µM (inactive) | 11.5 µM (inactive) | > 100 µM (inactive) | > 100 µM (inactive) | > 100 µM (inactive) | > 100 µM (inactive) | > 100 µM (inactive) | > 100 µM (inactive) | > 100 µM (inactive) | > 100 µM (inactive) | > 100 µM (inactive) | > 100 µM (inactive) | > 100 µM (inactive)
11 | CN1C(=O)[C@@H]2[C@@H]3c4ccccc4N[C@@H]3c3[nH]c4ccccc4c3[C@@H]2C1=O | 29.6 µM (inactive) | 16.6 µM (inactive) | 0.0502 µM (active) | 12.5 µM (inactive) | 24.5 µM (inactive) | 13.9 µM (inactive) | 29.2 µM (inactive) | – | 17.9 µM (inactive) | 18.2 µM (inactive) | – | 25 µM (inactive) | 17 µM (inactive) | 36.1 µM (inactive) | 16.9 µM (inactive) | 20.6 µM (inactive) | – | 23.8 µM (inactive) | 19 µM (inactive) | 18.7 µM (inactive)
12 | Cn1c(=O)[nH]c2c(c1=O)C(=O)CN2 | > 100 µM (inactive) | – | > 100 µM (inactive) | > 100 µM (inactive) | > 100 µM (inactive) | – | > 100 µM (inactive) | > 100 µM (inactive) | > 100 µM (inactive) | > 100 µM (inactive) | > 100 µM (inactive) | > 100 µM (inactive) | > 100 µM (inactive) | – | > 100 µM (inactive) | > 100 µM (inactive) | > 100 µM (inactive) | > 100 µM (inactive) | > 100 µM (inactive) | > 100 µM (inactive)
13 | CC(=O)NC(Cc1ccsc1)C(=O)O (configuration not stated) | > 100 µM (inactive) | > 100 µM (inactive) | > 100 µM (inactive) | > 100 µM (inactive) | > 100 µM (inactive) | > 100 µM (inactive) | > 100 µM (inactive) | – | > 100 µM (inactive) | > 100 µM (inactive) | > 100 µM (inactive) | > 100 µM (inactive) | > 100 µM (inactive) | > 100 µM (inactive) | > 100 µM (inactive) | > 100 µM (inactive) | > 100 µM (inactive) | – | > 100 µM (inactive) | > 100 µM (inactive)
14 | CCN(CC)c1ccc2cc(C(=O)Nc3ccc4[nH]c(C(=O)N5C[C@@H](CCl)c6c5cc(OC(=O)Nc5ccccc5)c5[nH]cc(C)c65)cc4c3)oc2c1 [CARZELESIN] | 294 µM (inactive) | 245 µM (inactive) | 0.000506 µM (active) | 306 µM (inactive) | 0.000479 µM (active) | 0.000311 µM (active) | 0.000321 µM (active) | – | 384 µM (inactive) | 434 µM (inactive) | 0.000256 µM (active) | 0.000201 µM (active) | – | > 1000 µM (inactive) | 0.000426 µM (active) | 0.000128 µM (active) | 678 µM (inactive) | – | 318 µM (inactive) | 0.000308 µM (active)
